Laboratory results: ChEMBL document CHEMBL2074003, “Transport of somatostatin and substance P by human P-glycoprotein” (FEBS Lett, 2004)

Key:
[1] = biological target: T1, ATP-dependent translocase ABCB1 (Homo sapiens, UniProt P08183); assay: TP_TRANSPORTER: uptake in membrane vesicles prepared from K562/ADM cells; assay type: functional, cell membranes, Membrane vesicle; conditions: k562/adr
[2] = biological target: T1, ATP-dependent translocase ABCB1; assay: TP_TRANSPORTER: uptake in membrane vesicles prepared from human MDR1 transfected KB3-1 cells; assay type: functional, cell membranes, Membrane vesicle; conditions: kb 3-1

T1 sequence (P08183 whole entry): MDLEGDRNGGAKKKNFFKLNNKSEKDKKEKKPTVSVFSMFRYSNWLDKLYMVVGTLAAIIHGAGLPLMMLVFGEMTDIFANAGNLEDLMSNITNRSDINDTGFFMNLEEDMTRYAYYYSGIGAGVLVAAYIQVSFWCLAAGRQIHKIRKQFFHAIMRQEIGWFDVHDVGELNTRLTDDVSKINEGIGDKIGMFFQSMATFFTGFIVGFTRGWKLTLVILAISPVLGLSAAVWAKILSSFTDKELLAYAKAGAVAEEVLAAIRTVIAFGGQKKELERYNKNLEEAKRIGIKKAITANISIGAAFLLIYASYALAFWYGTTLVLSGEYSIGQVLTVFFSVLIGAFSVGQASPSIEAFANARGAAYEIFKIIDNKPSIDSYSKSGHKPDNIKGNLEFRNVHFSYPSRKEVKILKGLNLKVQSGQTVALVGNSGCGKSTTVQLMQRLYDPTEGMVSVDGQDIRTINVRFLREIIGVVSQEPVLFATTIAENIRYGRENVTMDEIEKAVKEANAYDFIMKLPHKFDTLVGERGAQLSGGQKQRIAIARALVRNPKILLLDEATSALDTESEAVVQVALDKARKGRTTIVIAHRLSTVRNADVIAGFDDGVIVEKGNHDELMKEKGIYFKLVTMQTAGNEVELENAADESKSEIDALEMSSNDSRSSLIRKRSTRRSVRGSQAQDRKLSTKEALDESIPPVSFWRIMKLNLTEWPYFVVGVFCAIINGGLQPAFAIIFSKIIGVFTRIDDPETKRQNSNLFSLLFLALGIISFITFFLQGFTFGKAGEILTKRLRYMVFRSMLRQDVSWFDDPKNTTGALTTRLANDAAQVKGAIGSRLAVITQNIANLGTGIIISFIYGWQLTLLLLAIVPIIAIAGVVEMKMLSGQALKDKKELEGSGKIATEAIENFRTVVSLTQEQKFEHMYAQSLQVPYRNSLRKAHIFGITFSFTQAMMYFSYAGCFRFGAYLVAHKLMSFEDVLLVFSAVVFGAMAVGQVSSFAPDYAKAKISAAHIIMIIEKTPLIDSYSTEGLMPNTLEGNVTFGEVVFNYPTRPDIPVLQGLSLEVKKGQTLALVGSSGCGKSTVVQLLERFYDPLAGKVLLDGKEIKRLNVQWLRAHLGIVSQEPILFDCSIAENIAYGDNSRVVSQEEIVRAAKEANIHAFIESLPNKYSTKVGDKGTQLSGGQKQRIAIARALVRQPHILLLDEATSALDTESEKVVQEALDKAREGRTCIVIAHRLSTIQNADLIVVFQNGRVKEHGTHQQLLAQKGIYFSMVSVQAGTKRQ

Row | Compound | Activity [1] | Activity [2]
1 | C[C@H](N)C(=O)NCC(=O)N[C@H]1CSSC[C@@H](C(=O)O)NC(=O)[C@H](CO)NC(=O)[C@H]([C@@H](C)O)NC(=O)[C@H](Cc2ccccc2)NC(=O)[C@H]([C@@H](C)O)NC(=O)[C@H](CCCCN)NC(=O)[C@H](Cc2c[nH]c3ccccc23)NC(=O)[C@H](Cc2ccccc2)NC(=O)[C@H](Cc2ccccc2)NC(=O)[C@H](CC(N)=O)NC(=O)[C@H](CCCCN)NC1=O [SOMATOSTATIN] | substrate [+] | substrate [+]
2 | CSCC[C@H](NC(=O)[C@H](CC(C)C)NC(=O)CNC(=O)[C@H](Cc1ccccc1)NC(=O)[C@H](Cc1ccccc1)NC(=O)[C@H](CCC(N)=O)NC(=O)[C@H](CCC(N)=O)NC(=O)[C@@H]1CCCN1C(=O)[C@H](CCCCN)NC(=O)[C@@H]1CCCN1C(=O)[C@@H](N)CCCN=C(N)N)C(N)=O [SUBSTANCE P] | substrate [+] | substrate [+]
